Assay results as given in PMC7367283, “A PIP2 substitute mediates voltage sensor-pore coupling in KCNQ activation” (Communications Biology, 2020).
Values joined by “and” are separate entries in the source; they are usually repeats but may differ in a detail not shown here. Equal entries are not always repeated.

Target: KCNQ1 (Homo sapiens, UniProt P51787)
Assay: Two-electrode voltage clamp of WT KCNQ1 expressed in Xenopus oocytes
Format: cell-based
Conditions: for Current: Fig. 3b; for G/Gmax Mean: Fig. 3c; for ΔV1/2 of activation induced by CP1: Fig. 3e dose response; for Time constants of deactivation: Fig. 3d, individual values
Description: Complementary DNA (cDNA) encoding human KCNQ1 (UniProtKB/Swiss-Prot under accession no. P51787), KCNQ2 (O43526), KCNQ3 (O43525), KCNE1 (P15382), Kir1.1 (P48048), hERG (Q12809), KV4.2 (Q63881), NaV1.5 (Q14524), NaV β1 (Q07699), CaV1.2 (Q13936), CaV β1a (Q02641), CaV α2/δ1 (P54289), and HCN4 (Q9Y3Q4) were subcloned into oocyte expression vectors, respectively. Site-directed mutations of the KCNQ1 channel were all produced by overlap extension polymerase chain reaction (PCR) with high-fidelity Pfu polymerase (Stratagene, CA). The presence of the desired mutation was verified by sequencing the PCR-amplified regions. All the primer sequences used in this study are available in Supplementary Table 1. The complementary RNA (cRNA) of all these channels and mutations was transcribed in vitro with the T3, T7, or SP6 polymerase mMessage mMachine kit (Invitrogen, Thermo Fisher Scientific, MO). The use of Xenopus laevis to obtain oocytes was approved by the Washington University Animal Studies Committee (protocol #20190030). Oocytes were manually dispersed and digested with collagenase (0.5 mg/ml, Sigma-Aldrich, Saint Louis, MO) to remove the follicle cell layer. Stage V or VI oocytes were selected and injected with cRNAs (9.2 ng) of channel or mutations. Especially, to characterize IKs, a mix of cRNAs at a molar ratio 4:1 (KCNQ1:KCNE1) was injected. For KCNQ2/KCNQ3, the molar ratio was 1:1 (KCNQ2:KCNQ3). For sodium channels, a 3:1 molar ratio (β1:NaV1.5) and for calcium channels a weight ratio 1:1:1 (β1:α2/δ1:CaV1.2) was injected, respectively. Injected oocytes were incubated in ND96 solution containing (in mM) 96 NaCl, 2 KCl, 1.8 CaCl2, 1 MgCl2, and 5 HEPES, pH 7.6, supplemented with 2.5 mM Na pyruvate and 1% penicillin-streptomycin, at 18 °C for 3-7 days before recording. All electrophysiological recordings on oocytes and isolated ventricular cells were performed at room temperature (20-23 °C). The whole-oocyte ionic currents were recorded with a GeneClamp 500B amplifier (Axon Instruments, CA) or iTEV90 amplifier (HEKA, Germany) and then sampled at 1 kHz and low-pass-filtered at 2 kHz. The Patchmaster software (HEKA, Germany) was used to acquire data. The Kir1.1 current was recorded with a high K^+ bath solution containing (in mM) 96 KCl, 4 NaCl, 1 CaCl2, 2 MgCl2, and 10 HEPES, pH 7.3-7.4. The HCN4 current was recorded in ND66 solution containing (in mM) 66 NaCl, 32 KCl, 1.8 CaCl2, 1 MgCl2, and 5 HEPES, pH 7.6. All the other potassium channels were recorded in ND96 solution. The currents of CaV1.2 channel were recorded in 40 mM Ba^2+ bath solution containing (in mM) 40 Ba(OH)2, 50 TEA-OH, 2 KOH, and 5 HEPES, adjusted to pH 7.4 with methanesulfonic acid. […] All the chemicals were purchased from Sigma-Aldrich. To measure the I-V relations of the Kir1.1 channel, the test voltage was set from -100 to +60 mV for 1 s with 20-mV increments. […] The HCN4 currents were recorded by a test pulse between -30 and -140 mV in 10-mV step from a holding potential of -30 mV. For all the other potassium channels and CaV1.2 channel, the holding potential was -80 or -100 mV, and the test pulse was applied with 10-mV increment, which was followed with a repolarization pulse at -40 mV before returning to the holding potential. The durations of test and the repolarization pulse vary for different channels to allow the activation and deactivation of the channel to reach their steady states. Electrophysiology data were processed with IGOR (Wavemetrics, Lake Oswego, OR), Clampfit (Molecular Devices, Sunnyvale, CA), and SigmaPlot (SPSS, Inc., San Jose, CA). Normalized tail currents were plotted versus prepulse voltage and fitted with the Boltzmann function G = G0 + 1/(1 + exp(V - V1/2)/S), where G0 is the minimum conductance, V1/2 is the half-maximal voltage of activation, and S is the slope factor. […]

Current (10 µM CP1, 0 mV): 3.7050 µA
Current (10 µM CP1, 10 mV): 4.0550 µA
Current (10 µM CP1, 20 mV): 4.3975 µA
Current (10 µM CP1, 30 mV): 4.6856 µA
Current (10 µM CP1, 40 mV): 4.8369 µA
Current (10 µM CP1, -10 mV): 3.2725 µA
Current (10 µM CP1, -20 mV): 2.9419 µA
Current (10 µM CP1, -30 mV): 2.4731 µA
Current (10 µM CP1, -40 mV): 1.9956 µA
Current (10 µM CP1, -50 mV): 1.5250 µA
Current (10 µM CP1, -60 mV): 1.0387 µA
Current (10 µM CP1, -70 mV): 0.5337 µA
Current (10 µM CP1, -80 mV): 0.1319 µA
Current (10 µM CP1, -90 mV): -0.1563 µA
Current (10 µM CP1, -100 mV): -0.3112 µA
Current (10 µM CP1, -110 mV): -0.3831 µA
Current (10 µM CP1, -120 mV): -0.4494 µA
G/Gmax Mean (10 µM CP1, 0 mV): 0.9915
G/Gmax Mean (10 µM CP1, 10 mV): 0.9924
G/Gmax Mean (10 µM CP1, -10 mV): 1.0000
G/Gmax Mean (10 µM CP1, -20 mV): 0.9950
G/Gmax Mean (10 µM CP1, -30 mV): 0.9789
G/Gmax Mean (10 µM CP1, -40 mV): 0.9526
G/Gmax Mean (10 µM CP1, -50 mV): 0.9082
G/Gmax Mean (10 µM CP1, -60 mV): 0.8392
G/Gmax Mean (10 µM CP1, -70 mV): 0.7434
G/Gmax Mean (10 µM CP1, -80 mV): 0.6159
G/Gmax Mean (10 µM CP1, -90 mV): 0.4868
G/Gmax Mean (10 µM CP1, -100 mV): 0.3712
G/Gmax Mean (10 µM CP1, -110 mV): 0.2836
G/Gmax Mean (10 µM CP1, -120 mV): 0.2306
ΔV1/2 of activation induced by CP1 (1 µM CP1, individual values): 10.5419 and 2.1756 and 5.0919
ΔV1/2 of activation induced by CP1 (25 µM CP1, individual values): 80.4973 and 70.5486 and 58.5444
ΔV1/2 of activation induced by CP1 (50 µM CP1, individual values): 90.4999 and 79.3797 and 90.4855
EC50 (KCNQ1 expressed alone in oocytes, Hill fit, read-out: EC50 of G–V shift (ΔV1/2 of activation) versus CP1 concentration): 8.73 ± 0.68 µM
ion selectivity of KCNQ1 channels (Supplementary Fig. 2): does not alter the ion selectivity
G/Gmax (WT, 10 µM CP1, -20 mV): 1.0000
G/Gmax (WT, 10 µM CP1, -30 mV): 0.9911
G/Gmax (WT, 10 µM CP1, -40 mV): 0.9627
G/Gmax (WT, 10 µM CP1, -50 mV): 0.9093
G/Gmax (WT, 10 µM CP1, -60 mV): 0.8189
G/Gmax (WT, 10 µM CP1, -70 mV): 0.6709
G/Gmax (WT, 10 µM CP1, -80 mV): 0.4831
G/Gmax (WT, 10 µM CP1, -90 mV): 0.2996
G/Gmax (WT, 10 µM CP1, -100 mV): 0.1522
G/Gmax (WT, 10 µM CP1, -110 mV): 0.0549
G/Gmax (WT, 10 µM CP1, -120 mV): 0.0000
SMILES: O=S(=O)([O-])Oc1c(-c2sc3c(ccc4cccc(Cl)c43)c2OS(=O)(=O)[O-])[nH]c2ccc(Br)cc12.[Na+].[Na+] [CP1, DISODIUM 5-BROMO-2-[9-CHLORO-3-(SULFONATOOXY) NAPHTHO [1,2-B] THIEN-2-YL]-1H-INDOL-3-YL SULFATE]
outward current (Icp1/Ictrl) (10 µM CP1, Q1, at −10 mV, individual oocytes): 0.8052 and 0.8187 and 0.929 and 0.8224 and 0.7283
∆V1/2 (10 µM CP1, Q1, individual oocytes (Fig. 5c)): 44.3815 mV and 57.8695 mV and 53.8703 mV and 54.2596 mV and 54.8585 mV
∆V1/2 (10 µM CP1, WT, individual oocytes): 47.2416 mV and 59.5412 mV and 44.3815 mV and 57.8695 mV and 53.8703 mV and 54.2596 mV and 54.8585 mV and 51.8892 mV and 58.8475 mV and 52.7212 mV and 56.3253 mV
τ deact at -120 mV (10 µM CP1 treated, Q1, individual oocytes): 1.3301 s and 1.9909 s and 0.8395 s and 0.9034 s and 1.9351 s and 1.4782 s and 1.0081 s
ΔV1/2 of activation induced by CP1 (2 µM CP1, individual values): 12.1917 and 9.8070 and 18.4095 and 22.1605 and 21.9879 and 9.1767 and 12.7137
ΔV1/2 of activation induced by CP1 (5 µM CP1, individual values): 24.5897 and 25.8044 and 18.4530 and 34.4519 and 16.0115 and 11.0322
ΔV1/2 of activation induced by CP1 (10 µM CP1, individual values): 47.2416 and 73.6056 and 59.5412 and 44.3815 and 57.8695 and 53.8703 and 54.2596 and 54.8585 and 51.8892 and 58.8475 and 52.7212 and 56.3253
Time constants of deactivation (10 µM CP1, -90 mV): 3656.5 ms and 3430.6 ms and 3945.9 ms and 3244.2 ms
Time constants of deactivation (10 µM CP1, -100 mV): 3169.0 ms and 2901.8 ms and 2335.0 ms and 2809.3 ms and 2214.2 ms
Time constants of deactivation (10 µM CP1, -110 mV): 1447.9 ms and 2103.3 ms and 1665.7 ms and 1887.0 ms and 1619.5 ms
Time constants of deactivation (10 µM CP1, -120 mV): 823.6 ms and 1460.2 ms and 1255.8 ms and 1290.8 ms and 1343.2 ms
